Entries after “also recorded” stand apart in the source; their conditions may differ.
Assays:
[1] = design: species or system Sprague Dawley rats; conditions: rat, in vivo
Description: To measure the local and whole animal distribution a 14C, carbon radiolabeled version of a Cardiomatrix was generated. The radiolabeled version was internally labeled at the third alanine site (Acetyl-(RADA)-(R-[^14C(U)-Ala]-D-A)-(RADA)2-CONH2) as opposed to a labeled acetyl group which could be cleaved off, in order to better characterize the adsorption, degradation, metabolism and excretion (ADME) of the CardioMatrix material in vivo. The radiolabeled material was then implanted into Sprague Dawley rats in a femur defect model. Urine and stool samples were collected and the radioactivity was counted.

rabbits [2] = conditions: rabbit, in vivo
Method: A 0.5% w/v peptide CardioMatrix solution was extracted in NaCl and CSO at a ratio of 0.2 gm per 1.0 mL at 70±2° C. for 24 hours. […] Three rabbits were injected intracutaneously, using one side of the animal for the test article extracts and the other side for the control extracts, at 0.2 mL per site. The injected sites were examined at 24, 48, and 72 hours post inoculation for gross evidence of tissue reaction such as erythema, edema, and necrosis. A Primary Irritation Index of 0.5 or less will be considered a negligible irritant, where 0.5 to <2 are slight irritants, 2 to <5 are moderate irritants, and >5 are severe irritants.

rabbits [3] = assay: Rabbit Pyrogenicity (ISO-10993-11); type: in vivo; conditions: intravenous injection of extract at 10 mL/kg
Method: The purpose of the test was to detect the risk of a patient to a febrile reaction as a result of the administration of the test article extract. The test article was prepared by mixing 9 ml of the test article with 9 mL of 0.9% USP Sodium Chloride for Injection (NaCl) and the resulting gel extracted at a ration of 0.2 gm per 1.0 mL. The test article extract was administered by intravenous injection at 10 mL/kg. The rectal temperatures of the injected rabbits were compared with the temperature of a control rabbit similarly injected with 0.9% USP Sodium Chloride for Injection (NaCl). The base-line temperatures of the rabbits, determined no more than 30 minutes prior to injection of the test article extract, were used to exclude rabbits whose body temperatures vary by more than 1° C. from each other and whose temperatures are greater than 39.8° C. Body temperatures were recorded at 30 minute intervals between 1 and 3 hours subsequent to injection.

[4] = system: L929 mouse fibroblast cell culture; assay: Cytotoxicity: Agar Diffusion ISO 10993-5; type: cell-based; conditions: L929 mouse fibroblast monolayer
Description: (§1) Standard in vitro toxicology studies, including EN/ISO tests for cytotoxicity and hemocompatibility, have been completed. The tests below were completed at a FDA certified toxicology testing company (Toxikon Corp, Bedford, Mass.) using established standards of measure on a CardioMatrix material (Tables 3 and 4). The CardioMatrix solution tested in this example comprised various concentrations of CardioMatrix powder in substantially sucrose free aqueous solution.
The Agar Diffusion test (ISO 10993-5) measures a material's effect on cell cultures, which are extremely sensitive to minute quantities of leachable chemicals and readily display characteristic signs of toxicity in the presence of potentially harmful leachables. The biological reactivity of a mammalian monolayer, L929 mouse fibroblast cell culture, in response to the test article was determined as “no-reactivity” in tests.

[5] = system: rabbit blood (red blood cells); assay: Hemolysis: Direct Contact (ISO 10993-4); type: cell-based; conditions: rabbit blood in direct contact, triplicate
Description: as §1
The hemolysis test (Direct Contact, ISO-10993-4) measures the ability of a material to cause red blood cells to rupture. This test is derived from well-established NIH protocols and is performed in triplicate. This test uses rabbit blood in direct contact with the test material and the degree of hemolysis is measured spectrophotometrically.

[6] = system: prothrombin coagulation time of human plasma; assay: Prothrombin Time Assay, Human Plasma (ISO 10993-4)
Description: as §1
Prothrombin Time (Human Plasma, ISO 10993-4) measures the effect of a test article extract on human blood coagulation time. This assay has become a suitable clinical means of determining the presence and functioning ability of prothrombin in the process of coagulation.

[7] = system: paravertebral muscle of New Zealand white rabbits; conditions: in vivo
Description: This test assesses the local effects of material on contact with living tissue. Test article was implanted into paravertebral muscle of 3 New Zealand white rabbits, with negative control (GelFoam) implanted in the contralateral muscle of each animal. Healing was allowed for 2 weeks. Animals were sacrificed and implants excised. Excised implants were examined macroscopically with a magnifying lens and fixed in formalin. Histologic slides of hematoxylin and eosin (H&E) and Mason's Trichrome stained sections were prepared, studied microscopically by a board-certified veterinary pathologist, and evaluated on a scale of 0-3. CardioMatrix implants retained the initial implant volume, collagen fibers, and vascularization of the injection site.

- Time until degraded and excreted [1]: ≤ 28 days
- Initiation of coagulation cascades (hemocompatibility tests) ([6]; direct contact with blood and plasma): do not initiate coagulation cascades
SMILES: CC(=O)N[C@@H](CCCNC(=N)N)C(=O)N[C@@H](C)C(=O)N[C@@H](CC(=O)O)C(=O)N[C@@H](C)C(=O)N[C@@H](CCCNC(=N)N)C(=O)N[C@@H](C)C(=O)N[C@@H](CC(=O)O)C(=O)N[C@@H](C)C(=O)N[C@@H](CCCNC(=N)N)C(=O)N[C@@H](C)C(=O)N[C@@H](CC(=O)O)C(=O)N[C@@H](C)C(=O)N[C@@H](CCCNC(=N)N)C(=O)N[C@@H](C)C(=O)N[C@@H](CC(=O)O)C(=O)N[C@@H](C)C(N)=O [CardioMatrix, RADARADARADARADA]
- Irritant class by Primary Irritation Index (rabbits [2]): “Negligible”
- Signs of erythema or edema at injected sites (rabbits [2]): did not exhibit signs of erythema or edema
- Rabbit pyrogenicity, febrile reaction (rabbits [3]): None of the animals injected with the test article extract exhibited signs of pyrogenic response; also recorded: No effect on animals; also recorded: No febrile reaction from any animal
- Cytotoxicity: Agar Diffusion, biological reactivity [4]: no-reactivity; also recorded: Non-cytotoxic
- Hemolysis: Direct Contact [5]: Non-hemolytic
- Effect on prothrombin coagulation time ([6]; test article extract, human plasma): did not have an adverse effect
- Rabbit Muscle Implant toxicity score [7]: 0.13

From patent US9012404B2, “Compositions and methods for cardiac tissue protection and regeneration” (3D Matrix, Inc., priority 2006, dated 2015)
